The text below walks through data of ChEMBL document CHEMBL1201862, “PubChem BioAssay data set” (2004).

Some test systems named below: CAKI-1; HCC 2998; HCT-15; HL-60; IGROV-1; KM12; NCI-H460; OVCAR-3; OVCAR-4; RXF 393; SF-539; SK-OV-3; TK-10; UACC-62; ACHN; SK-MEL-28; SK-MEL-5.
Holding throughout (experiment): NCI tumour cell line growth inhibition, 48 h

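How tested: cells in 96-well plates exposed to compound for 48 hours at five concentrations. GI50 = concentration required for 50% inhibition of growth.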 Calls of active or inactive are those of the source. Cut-off read from the data, not from the text of the source: active = GI50 up to about 1.1 µM and inactive = higher.

Consider `COC(=O)C(C(=O)C(=O)Nc1ccc(C(F)(F)F)cc1[N+](=O)[O-])c1csc(-n2nc(-c3ccccc3)cc2-c2ccccc2)n1` (stereo not drawn), for which the GI50 in the assay on CAKI-1 is > 100 µM (inactive); with HCC 2998, > 100 µM (inactive); in the assay with HCT-15 it was greater than 100 µM; in the assay on HL-60, > 100 µM (inactive); in the assay with IGROV-1, > 100 µM (inactive); with KM12, > 100 µM (inactive). Further, the GI50 in the assay on NCI-H460, with OVCAR-3, with OVCAR-4, with RXF 393, in the assay on SF-539 and with SK-OV-3 was > 100 µM (inactive) each time. Also, the GI50 in the assay with TK-10 and with UACC-62 was > 100 µM (inactive) in each case.

Consider `COc1cccc(C2C(C(=O)Nc3cc(=O)n(C)c(=O)n3C)=C(C)NC(C)=C2C(=O)Nc2cc(=O)n(C)c(=O)n2C)c1O`, for which the GI50 in the assay on ACHN, in the assay on CAKI-1, in the assay on HCC 2998, in the assay on HL-60, with IGROV-1 and with KM12 was > 100 µM (inactive) each time. For the same compound, the GI50 in the assay on NCI-H460, in the assay with OVCAR-3, in the assay on OVCAR-4, in the assay with RXF 393, with SF-539 and with SK-MEL-28 was > 100 µM (inactive) in each case. The GI50 in the assay with SK-MEL-5, in the assay with SK-OV-3 and in the assay on TK-10 was > 100 µM (inactive) throughout.

As to `CCCC(S(=O)(=O)c1ccccc1)S(=O)(=O)c1ccccc1`, the GI50 in the assay on ACHN was > 100 µM (inactive); in the assay on CAKI-1, > 100 µM (inactive); in the assay on HCC 2998 it was > 100 µM (inactive); in the assay with HCT-15 it was greater than 100 µM; in the assay on HL-60 it was > 100 µM (inactive); with IGROV-1 it was > 100 µM (inactive). Further, the GI50 in the assay with KM12, in the assay with NCI-H460, with OVCAR-3, in the assay on OVCAR-4, in the assay on RXF 393 and with SF-539 was > 100 µM (inactive) each time. Besides, the GI50 in the assay with SK-MEL-28, in the assay with SK-MEL-5, with SK-OV-3, in the assay with TK-10 and in the assay on UACC-62 was > 100 µM (inactive) each time.

For `O=c1[nH]cc(F)c(=O)n1C1OC(CO)C(O)C1O` (stereo not drawn), the GI50 in the assay on ACHN was > 100 µM (inactive); in the assay with CAKI-1, > 100 µM (inactive); in the assay on HCC 2998, > 100 µM (inactive); in the assay on HCT-15, greater than 100 µM; in the assay with HL-60 it was > 100 µM (inactive); with KM12 it was > 100 µM (inactive). For the same compound, the GI50 with NCI-H460, in the assay with OVCAR-3, in the assay with OVCAR-4, in the assay on RXF 393, in the assay with SK-MEL-28 and in the assay on SK-MEL-5 was > 100 µM (inactive) each time. Besides, the GI50 in the assay on SK-OV-3 and in the assay with TK-10 was > 100 µM (inactive) each time.

For the compound `O=C(O)/C(Cl)=C(\Cl)Nc1cccc(C(F)(F)F)c1`, the GI50 with ACHN is > 100 µM (inactive); with CAKI-1, > 100 µM (inactive); with HCC 2998, > 100 µM (inactive); in the assay with HCT-15, greater than 100 µM; in the assay with HL-60, 39.5 µM (inactive); in the assay on IGROV-1, > 100 µM (inactive). In addition, the GI50 with NCI-H460, in the assay on OVCAR-3, in the assay with OVCAR-4, in the assay on RXF 393, in the assay with SK-MEL-28 and in the assay on SK-OV-3 was > 100 µM (inactive) throughout. Moreover, the GI50 with TK-10 and in the assay on UACC-62 was > 100 µM (inactive) each time.

As to `Cc1ccccc1C(C#N)/C(=N/NC(=O)c1cc2ccccc2cc1O)C(=O)Nc1cccc(Cl)c1` (stereo not drawn), the GI50 is 16.4 µM (inactive) with ACHN; 19.8 µM (inactive) in the assay on CAKI-1; 28.8 µM (inactive) in the assay on HCC 2998; 22.4 µM in the assay with HCT-15; 3.72 µM (inactive) in the assay on HL-60; 9.93 µM (inactive) with IGROV-1. In addition, the GI50 is 33.4 µM (inactive) in the assay with KM12; 28.7 µM (inactive) with NCI-H460; 5.42 µM (inactive) in the assay on OVCAR-3; 21.6 µM (inactive) in the assay on OVCAR-4; 26.4 µM (inactive) in the assay on SF-539; 25.1 µM (inactive) in the assay on SK-MEL-28. In addition, the GI50 in the assay with SK-MEL-5 is 8.38 µM (inactive); in the assay with SK-OV-3, 41.8 µM (inactive); in the assay with TK-10, 45.7 µM (inactive); with UACC-62, 4.27 µM (inactive).

As for `C[N+](C)(C)CC(=O)N/N=C(/C=C/c1ccccc1)CC1OC(=O)c2ccccc21` (stereo not drawn), the GI50 with ACHN was > 100 µM (inactive); with CAKI-1, > 100 µM (inactive); with HCC 2998 it was > 100 µM (inactive); with HCT-15 it was greater than 100 µM; in the assay on HL-60, > 100 µM (inactive); with IGROV-1, > 100 µM (inactive). In addition, the GI50 in the assay with KM12, with NCI-H460, with OVCAR-4, in the assay with RXF 393, with SF-539 and with SK-MEL-28 was > 100 µM (inactive) in each case. The GI50 with SK-MEL-5, in the assay with SK-OV-3, in the assay with TK-10 and with UACC-62 was > 100 µM (inactive) throughout.

Regarding `C[n+]1c2ccccc2c(CNCC(=O)O)c2ccccc21`, the GI50 with ACHN was 0.61 µM (active); in the assay with CAKI-1, 0.406 µM (active); in the assay on HCC 2998 it was 5.92 µM (inactive); in the assay with HCT-15 it was 0.805 µM; in the assay on HL-60 it was 0.187 µM (active); in the assay with IGROV-1, 5.96 µM (inactive). For the same compound, the GI50 in the assay with KM12 is 0.452 µM (active); in the assay on NCI-H460, 3.76 µM (inactive); in the assay on OVCAR-3, 1.87 µM (inactive); in the assay with OVCAR-4, 12.6 µM (inactive); in the assay with RXF 393 it was 2.38 µM (inactive); in the assay with SF-539 it was 2.12 µM (inactive). Moreover, the GI50 in the assay on SK-MEL-5 was 3.98 µM (inactive); in the assay with SK-OV-3 it was 4.74 µM (inactive); in the assay with TK-10, 0.708 µM (active); in the assay with UACC-62, 1.21 µM (inactive).

Regarding `Cc1ccc(S(=O)(=O)NC2(C=O)CCC(C(C)(C)C)CC2)cc1` (stereo not drawn), the GI50 with ACHN was 32.5 µM (inactive); in the assay with CAKI-1, > 100 µM (inactive); in the assay with HCC 2998, 36.9 µM (inactive); in the assay with HCT-15, 32.6 µM; with HL-60 it was 20.1 µM (inactive); in the assay on IGROV-1, 37.7 µM (inactive). The GI50 with KM12 is 27 µM (inactive); in the assay with NCI-H460, 32.3 µM (inactive); with OVCAR-3 it was 24.5 µM (inactive); with OVCAR-4 it was 27.7 µM (inactive); in the assay on RXF 393 it was 27.3 µM (inactive); in the assay with SF-539 it was 44.6 µM (inactive). Besides, the GI50 was 21.9 µM (inactive) in the assay on SK-MEL-5, > 100 µM (inactive) in the assay on SK-OV-3, 33.8 µM (inactive) in the assay on TK-10 and 39 µM (inactive) in the assay with UACC-62.
